Results as given in US8187802B2, “Cell lines useful for assessing modulation of autophagy” (Rutgers, The State University of New Jersey, priority 2008, dated 2012).
Entries after “also recorded” stand apart in the source; their conditions may differ.

Columns and labels:
Type in all cases: cell-based, mouse
p62 = experiment: Western blot analysis of p62 levels after metabolic stress without and with NAC
Source text: (§1) FIG. 5 illustrates effects of metabolic stress in promoting elevated ROS production and chromosomal instability in autophagy-deficient cells. (A) Autophagy-deficiency leads to elevated ROS production. Overlays show ROS levels in Bcl-2 expressing beclin1^+/+ (Green) and beclin1^+/− iBMK cells (Blue) (x-axis, log scale) under normal growth (0 Di) and at 0.5, 1, 2.5 and 24 hr (beclin1^+/+, green arrows and beclin1^+/−, red arrows) during recovery (0.5-24 hR) from 5 days of metabolic stress (5 Di) by flow-cytometry using the ROS sensor DCF-DA. The ROS levels in untreated cells are shown in dotted lines for comparison. (B) Representative histogram from three independent experiments measuring the mean ROS levels in Bcl-2 expressing beclin1^+/+ and beclin1^+/− iBMK cells shown in (A). […] Representative time-lapse images of Bcl-2 expressing beclin1^+/+ and beclin1^+/− iBMK cells during recovery following 5 days of metabolic stress in presence (NAC) and absence (UT) of the ROS scavenger NAC (1 mM) (relative percentage of adherent cells compared to time 0 is shown). […] Western blot analysis of p62 levels in Bcl-2 expressing beclin1^+/+, beclin1^+/−, atg5^+/+ and atg5^−/− iBMK cell lines following 0 or 7 days of metabolic stress followed by 1 day recovery without and with NAC. […] Numbers represent passage numbers at which ploidy was determined. […]

[1] = tested on: diploid beclin1^+/+ and beclin1^+/− iBMK cells; experiment: Flow-cytometry analysis of DNA content (progression to aneuploidy) over passages without and with NAC; settings: NAC 1 mM
Source text: FIG. 5 illustrates effects of metabolic stress in promoting elevated ROS production and chromosomal instability in autophagy-deficient cells. (A) Autophagy-deficiency leads to elevated ROS production. Overlays show ROS levels in Bcl-2 expressing beclin1^+/+ (Green) and beclin1^+/− iBMK cells (Blue) (x-axis, log scale) under normal growth (0 Di) and at 0.5, 1, 2.5 and 24 hr (beclin1^+/+, green arrows and beclin1^+/−, red arrows) during recovery (0.5-24 hR) from 5 days of metabolic stress (5 Di) by flow-cytometry using the ROS sensor DCF-DA. The ROS levels in untreated cells are shown in dotted lines for comparison. […] Numbers represent passage numbers at which ploidy was determined.
To determine if the elevated ROS and oxidative stress in autophagy-deficient cells contributes to cellular damage, the stress response without and with the ROS scavenger, N-acetyl cysteine (NAC) was examined. […] To examine the role of increased ROS levels and oxidative stress on genomic instability, the DNA content of early passage diploid beclin1^+/+, and autophagy-deficient beclin1^+/− iBMK cells without and with NAC by flow-cytometry were monitored. beclin1^+/+ iBMK cells maintained diploidy after 40 passages and the presence of NAC had no effect. […]

[2] = tested on: Bcl-2 expressing beclin1^+/+ and beclin1^+/− iBMK cells; experiment: Survival during metabolic stress and recovery without and with ROS scavenger (time-lapse images, adherent cells); settings: NAC 1 mM, 5 days of metabolic stress
Source text: as §1

[3] = tested on: Bcl-2 expressing beclin1^+/+ and beclin1^+/− iBMK cells; experiment: MTT assays of sensitivity to ER stress and proteasome inhibition; settings: MTT assay; increasing concentrations; tunicamycin 3 days, epoxomycin 2 days; normal growth conditions
Source text: FIG. 3 illustrates the effects of autophagy defects in altering the stress response and sensitize cells to ER stress and proteasome inhibition. (A) Western blots showing levels of p62, ER chaperones, PDI and ubiquitin in Bcl-2 expressing beclin1^+/+, beclin1^+/−, atg5^+/+ and atg5^−/− iBMK cells following 5 or 7 days of metabolic stress, and 1 and 2 days of recovery. (B-D) Allelic loss of beclin1 sensitizes cells selectively to ER stress and proteasome inhibition. MTT assays showing sensitivity of Bcl-2 expressing beclin1^+/+ (Blue) and beclin1^+/− (Red) iBMK cells in response to increasing concentrations of (B) tunicamycin for 3 days, or (C) epoxomycin for 2 days, and (D) following 5 days of metabolic stress. Data are presented as mean±SD. (E) Autophagy deficiency causes mitochondrial damage. […]
Since autophagy defects indicated an elevated demand for protein folding, the sensitivity of beclin1 cells to pharmacological induction of ER stress was investigated. […] Degradation of unfolded proteins via the proteasome pathway and ameliorates ER stress and to investigate if autophagy deficiency also elevated the burden on the ubiquitin-proteasome system, the sensitivity to the proteasome inhibitor epoxomycin was assessed. […]

Compound	p62 accumulation during metabolic stress (p62; NAC 1 mM, beclin1^+/− iBMK cells)	p62 accumulation in autophagy-deficient cells (p62; beclin1^+/− and atg5^−/− cells, 7 days of metabolic stress followed by 1 day recovery, with NAC)	effect on maintenance of diploidy ([1]; beclin1^+/+ iBMK cells, 40 passages)	progression to aneuploidy ([1]; beclin1^+/− cells, passages 18 and 39)	protective effect in beclin1^+/− cells relative to wild-type [2]	survival during metabolic stress ([2]; beclin1^+/+ and beclin1^+/− cells)	sensitivity of beclin1^+/− cells compared to wild-type cells [3]
CC(=O)N[C@@H](CS)C(=O)O [NAC, N-acetyl cysteine]	decreased p62 accumulation	suppresses p62 accumulation	had no effect	limits progression to aneuploidy; also recorded: delayed this progression	more profound	partially rescues the susceptibility to metabolic stress and recovery; also recorded: improved survival	–
Tunicamycin	–	–	–	–	–	–	increased sensitivity
